Reference: patent publication US20250120981A1, “MRTX1133 PHARMACEUTICAL COMPOSITIONS” (MIRATI THERAPEUTICS, INC., priority 2023, published 2025)
Like-named read-outs stand apart in the source and are kept apart here.

Test: Pharmacokinetics in humans, MRTX1133 formulation, oral, single and multiple doses
Format: in vivo
Settings: for increase in the mean exposure: dose increased from 200 mg BID to 400 mg BID; for concentration at 0 h / concentration at 0.5 h / concentration at 1 h / concentration at 1.5 h / concentration at 2 h / concentration at 4 h / concentration at 6 h / concentration at 8 h / concentration at 12 h / concentration at 24 h / AUC(0-t) / Cmax / Tmax / AUC0-inf / concentration at 3 h / concentration at 5 h / concentration at 48 h / concentration at 72 h / concentration at 96 h / half-life: human, plasma, po; for AUC0-inf: read-out: AUC0-inf, Geo Mean
Procedure: The pharmacokinetics [PK] of the MRTX1133 formulation after oral administration has been evaluated in 25 subjects across 3 escalating dose frequencies under fasting conditions (200 mg twice daily [BID], 400 mg BID, and 800 mg BID), as well as evaluation of 400 mg BID when administered with a low-fat meal (i.e., under fed conditions). The mean (+standard deviation) single-dose and multiple-dose pharmacokinetic profiles of the evaluated doses are presented in FIG. 9 and FIG. 10, respectively. Individual single- and multiple-dose PK profiles can be found in FIG. 11. For all figures, the X-axis represents nominal time of sample collection (hours [h]) and the Y-axis represents plasma concentration (ng/mL). Table 10 lists PK data following the oral administration of a single dose and multiple doses of MRTX1133 formulation by dose level and subject.

[1] = 200 mg, multiple oral doses of 200 mg BID, fasted, mean of subjects, read-out: Plasma concentration, Mean
[2] = 200 mg, single oral dose of 200 mg, fasted, mean of subjects, read-out: Plasma concentration, Mean
[3] = 400 mg, multiple oral doses of 400 mg BID with a low-fat meal, mean of subjects, read-out: Plasma concentration, Mean
[4] = 400 mg, multiple oral doses of 400 mg BID with a low-fat meal, mean of subjects
[5] = 400 mg, multiple oral doses of 400 mg BID, fasted, mean of subjects, read-out: Plasma concentration, Mean
[6] = 400 mg, single oral dose of 400 mg with a low-fat meal, mean of subjects, read-out: Plasma concentration, Mean
[7] = 400 mg, single oral dose of 400 mg with a low-fat meal, mean of subjects
[8] = 400 mg, single oral dose of 400 mg with a low-fat meal, individual subjects, read-out: Plasma concentration
[9] = 400 mg, single oral dose of 400 mg, fasted, mean of subjects, read-out: Plasma concentration, Mean
[10] = 400 mg, single oral dose of 400 mg, fasted, individual subjects, read-out: Plasma concentration
[11] = 800 mg, multiple oral doses of 800 mg BID, fasted, Mean of subjects, read-out: Plasma concentration

increase in the mean exposure (fasted, multiple doses): ~4.4 fold
increase in the mean exposure (fasted, single dose): approximately 1.8 fold
concentration at 0 h [1]: 5.33 ng/mL
concentration at 0.5 h [1]: 28.1 ng/mL
concentration at 1 h [1]: 31.1 ng/mL
concentration at 1.5 h [1]: 33.1 ng/mL
concentration at 2 h [1]: 20.1 ng/mL
concentration at 4 h [1]: 6.62 ng/mL
concentration at 6 h [1]: 3.85 ng/mL
concentration at 8 h [1]: 2.79 ng/mL
concentration at 12 h [1]: 2.46 ng/mL
concentration at 24 h (200 mg, multiple oral doses of 200 mg BID, fasted, individual subjects, sample taken after PM dose, read-out: Plasma concentration): 0.73 ng/mL
AUC(0-t) (200 mg, multiple oral doses of 200 mg BID, fasted, geometric mean of subjects, read-out: AUC0-12, Geo Mean): 93.1 ng·h/mL
AUC(0-t) (200 mg, multiple oral doses of 200 mg BID, fasted, geometric mean of subjects, read-out: AUC0-last, Geo Mean): 75.2 ng·h/mL
Cmax (200 mg, multiple oral doses of 200 mg BID, fasted, geometric mean of subjects, read-out: Cmax, Geo Mean): 36 ng/mL
Tmax (200 mg, multiple oral doses of 200 mg BID, fasted, median of subjects (footnote b), read-out: Tmax, Median): 1.5 h
concentration at 0.5 h [2]: 11.1 ng/mL
concentration at 1 h [2]: 44.3 ng/mL
concentration at 1.5 h [2]: 39 ng/mL
concentration at 2 h [2]: 39.3 ng/mL
concentration at 4 h [2]: 30.4 ng/mL
concentration at 6 h [2]: 11.9 ng/mL
concentration at 8 h [2]: 6.58 ng/mL
concentration at 12 h [2]: 4.44 ng/mL
concentration at 24 h [2]: 0.521 ng/mL
AUC(0-t) (200 mg, single oral dose of 200 mg, fasted, geometric mean of subjects, read-out: AUC0-12, Geo Mean): 148 ng·h/mL
AUC0-inf (200 mg, single oral dose of 200 mg, fasted, geometric mean of subjects): 165 ng·h/mL
AUC(0-t) (200 mg, single oral dose of 200 mg, fasted, geometric mean of subjects, read-out: AUC0-last, Geo Mean): 151 ng·h/mL
Cmax (200 mg, single oral dose of 200 mg, fasted, geometric mean of subjects, read-out: Cmax, Geo Mean): 59.8 ng/mL
Tmax (200 mg, single oral dose of 200 mg, fasted, median of subjects (footnote b), read-out: Tmax, Median): 1.5 h
concentration at 0 h [3]: 16.7 ng/mL
concentration at 1 h [3]: 138 ng/mL
concentration at 2 h [3]: 66.7 ng/mL
concentration at 3 h [4]: 55.1 ng/mL
concentration at 4 h [3]: 100 ng/mL
concentration at 5 h [4]: 39.8 ng/mL
concentration at 6 h [3]: 30 ng/mL
concentration at 8 h [3]: 23 ng/mL
concentration at 12 h [3]: 17.3 ng/mL
AUC(0-t) (400 mg, multiple oral doses of 400 mg BID with a low-fat meal, geometric mean of subjects, read-out: AUC0-12, Geo Mean): 310 ng·h/mL
AUC(0-t) (400 mg, multiple oral doses of 400 mg BID with a low-fat meal, geometric mean of subjects, read-out: AUC0-last, Geo Mean): 310 ng·h/mL
Cmax (400 mg, multiple oral doses of 400 mg BID with a low-fat meal, geometric mean of subjects, read-out: Cmax, Geo Mean): 102 ng/mL
Tmax (400 mg, multiple oral doses of 400 mg BID with a low-fat meal, median of subjects (footnote b), read-out: Tmax, Median): 1 h
concentration at 0 h [5]: 19.4 ng/mL
concentration at 0.5 h [5]: 72.7 ng/mL
concentration at 1 h [5]: 85.9 ng/mL
concentration at 1.5 h [5]: 64.6 ng/mL
concentration at 2 h [5]: 48.5 ng/mL
concentration at 4 h [5]: 77.3 ng/mL
concentration at 6 h [5]: 63.4 ng/mL
concentration at 8 h [5]: 40.3 ng/mL
concentration at 12 h [5]: 27.8 ng/mL
AUC(0-t) (400 mg, multiple oral doses of 400 mg BID, fasted, geometric mean of subjects, read-out: AUC0-12, Geo Mean): 410 ng·h/mL
AUC(0-t) (400 mg, multiple oral doses of 400 mg BID, fasted, geometric mean of subjects, read-out: AUC0-last, Geo Mean): 410 ng·h/mL
Cmax (400 mg, multiple oral doses of 400 mg BID, fasted, geometric mean of subjects, read-out: Cmax, Geo Mean): 111 ng/mL
Tmax (400 mg, multiple oral doses of 400 mg BID, fasted, median of subjects (footnote b), read-out: Tmax, Median): 1 h
concentration at 1 h [6]: 46.7 ng/mL
concentration at 2 h [6]: 43.6 ng/mL
concentration at 3 h [7]: 43.7 ng/mL
concentration at 4 h [6]: 59.7 ng/mL
concentration at 5 h [7]: 53.9 ng/mL
concentration at 6 h [6]: 43.6 ng/mL
concentration at 8 h [6]: 20.4 ng/mL
concentration at 12 h [6]: 11.3 ng/mL
concentration at 24 h [8]: 7.59 ng/mL
concentration at 24 h [6]: 7.59 ng/mL
concentration at 48 h [8]: 3.13 ng/mL
concentration at 48 h [6]: 3.13 ng/mL
concentration at 72 h [8]: 2.13 ng/mL
concentration at 72 h [6]: 2.13 ng/mL
concentration at 96 h [8]: 1.12 ng/mL
concentration at 96 h [6]: 1.12 ng/mL
AUC(0-t) (400 mg, single oral dose of 400 mg with a low-fat meal, geometric mean of subjects, read-out: AUC0-12, Geo Mean): 256 ng·h/mL
AUC0-inf (400 mg, single oral dose of 400 mg with a low-fat meal, geometric mean of subjects): 300 ng·h/mL
AUC(0-t) (400 mg, single oral dose of 400 mg with a low-fat meal, geometric mean of subjects, read-out: AUC0-last, Geo Mean): 277 ng·h/mL
Cmax (400 mg, single oral dose of 400 mg with a low-fat meal, geometric mean of subjects, read-out: Cmax, Geo Mean): 66.6 ng/mL
half-life (400 mg, single oral dose of 400 mg with a low-fat meal, geometric mean of subjects, read-out: T1/2, Geo Mean (converted)): 27.2 h
half-life (400 mg, single oral dose of 400 mg with a low-fat meal, individual subjects, read-out: T1/2 (converted)): 27.2 h
Tmax (400 mg, single oral dose of 400 mg with a low-fat meal, median of subjects (footnote b), read-out: Tmax, Median): 4 h
concentration at 0.5 h [9]: 42.7 ng/mL
concentration at 1 h [9]: 52.2 ng/mL
concentration at 1.5 h [9]: 48.9 ng/mL
concentration at 2 h [9]: 83.3 ng/mL
concentration at 4 h [9]: 64.4 ng/mL
concentration at 6 h [9]: 34.5 ng/mL
concentration at 8 h [9]: 23 ng/mL
concentration at 12 h [9]: 11.9 ng/mL
concentration at 24 h [10]: 3.75 ng/mL
concentration at 24 h [9]: 3.75 ng/mL
concentration at 48 h [10]: 1.46 ng/mL
concentration at 48 h [9]: 1.46 ng/mL
concentration at 72 h [10]: 0.872 ng/mL
concentration at 72 h [9]: 0.872 ng/mL
concentration at 96 h [10]: 0.538 ng/mL
concentration at 96 h [9]: 0.538 ng/mL
AUC(0-t) (400 mg, single oral dose of 400 mg, fasted, geometric mean of subjects, read-out: AUC0-12, Geo Mean): 263 ng·h/mL
AUC0-inf (400 mg, single oral dose of 400 mg, fasted, geometric mean of subjects): 304 ng·h/mL
AUC(0-t) (400 mg, single oral dose of 400 mg, fasted, geometric mean of subjects, read-out: AUC0-last, Geo Mean): 278 ng·h/mL
Cmax (400 mg, single oral dose of 400 mg, fasted, geometric mean of subjects, read-out: Cmax, Geo Mean): 86.2 ng/mL
half-life (400 mg, single oral dose of 400 mg, fasted, geometric mean of subjects, read-out: T1/2, Geo Mean (converted)): 33.3 h
half-life (400 mg, single oral dose of 400 mg, fasted, individual subjects, read-out: T1/2 (converted)): 33.3 h
Tmax (400 mg, single oral dose of 400 mg, fasted, median of subjects (footnote b), read-out: Tmax, Median): 2 h
concentration at 0 h [11]: 20.6 ng/mL
concentration at 0.5 h [11]: 97.2 ng/mL
concentration at 1 h [11]: 137 ng/mL
concentration at 1.5 h [11]: 107 ng/mL
concentration at 2 h [11]: 122 ng/mL
concentration at 4 h [11]: 138 ng/mL
concentration at 6 h [11]: 107 ng/mL
concentration at 8 h [11]: 56.2 ng/mL
concentration at 12 h [11]: 14.7 ng/mL
AUC(0-t) (800 mg, multiple oral doses of 800 mg BID, fasted, Geo Mean of subjects, read-out: AUC0-12): 347 ng·h/mL
AUC(0-t) (800 mg, multiple oral doses of 800 mg BID, fasted, Geo Mean of subjects, read-out: AUC0-last): 477 ng·h/mL
Cmax (800 mg, multiple oral doses of 800 mg BID, fasted, Geo Mean of subjects, read-out: Cmax): 99.5 ng/mL
Tmax (800 mg, multiple oral doses of 800 mg BID, fasted, Median of subjects, read-out: Tmax): 2 h
Compound: C#Cc1c(F)ccc2cc(O)cc(-c3ncc4c(N5C[C@H]6CC[C@@H](C5)N6)nc(OC[C@@]56CCCN5C[C@H](F)C6)nc4c3F)c12 [MRTX1133, 4-(4-((1R,5S)-3,8-diazabicyclo[3.2.1]octan-3-yl)-8-fluoro-2-(((2R,7aS)-2-fluorohexahydro-1Hpyrrolizin-7a-yl)methoxy)pyrido[4,3-d]pyrimidin-7-yl)-5-ethynyl-6-fluoronaphthalen-2-ol]
change of mean single- and multiple-dose exposure (dose increased from 400 mg BID to 800 mg BID, fasted): did not change in a clinically meaningful manner
